Measured values from patent EP2340832A1, “Morphinan-6-one compounds for the treatment or prevention of neurodegenerative diseases” (Universität Innsbruck, priority 2009, dated 2011).

Assays:
δ receptor = molecular target: T1, δ receptor (Rattus norvegicus, UniProt P33533); experiment: [35S]GTPγS functional assay, rat brain membranes, δ receptor; assay type: biochemical, Sprague-Dawley rat
T1 construct: Membrane fractions were prepared from Sprague-Dawley rat or guinea pig brains; from tissue; host or cells: Sprague-Dawley rat brain (without cerebella) membranes
T1 sequence (P33533 whole entry): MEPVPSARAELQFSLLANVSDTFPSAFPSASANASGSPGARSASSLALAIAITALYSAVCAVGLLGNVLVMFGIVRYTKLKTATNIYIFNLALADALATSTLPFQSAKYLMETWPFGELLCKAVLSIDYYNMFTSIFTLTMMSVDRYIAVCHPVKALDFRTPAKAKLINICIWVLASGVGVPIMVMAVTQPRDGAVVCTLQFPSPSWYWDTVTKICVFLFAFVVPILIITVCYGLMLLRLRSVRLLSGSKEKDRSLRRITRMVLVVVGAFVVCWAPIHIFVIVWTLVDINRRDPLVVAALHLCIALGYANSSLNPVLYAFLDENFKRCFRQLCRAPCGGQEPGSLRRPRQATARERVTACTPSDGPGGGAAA
Procedure: (§1) Membrane fractions were prepared from Sprague-Dawley rat or guinea pig brains as described above. To determine binding of [^35S]GTPyS, rat or guinea pig brain membranes (10 µg of protein) were incubated for 60 min at 30 °C in Tris-EGTA buffer (50 mM Tris-HCl buffer, 3 mM MgCl2, 1 mM EGTA, […], pH 7.4) containing 30 µM GDP, 0.05 nM [^35S]GTPyS and appropriate concentrations of the respective compounds according to the present invention in a final volume of 1 ml. The reaction was terminated by vacuum filtration through Whatman GF/B glass fibre filters. Filters were washed three times with ice-cold 50 mM Tris-HCI buffer (pH 7.4) and the bound radioactivity was measured by liquid scintillation counting (Beckman Coulter™ LS6500). Basal activity was determined by subtracting the non-specific binding (measured in the presence of 100 µM unlabelled GTPyS) from the total binding (measured in the absence of the compound).
(§2) Stimulation produced by the compound is given as percentage of the basal activity (given as 100%). Functional data, EC50 (nM; half maximal effective concentration) and maximal stimulation Emax (% stimulation over basal level; maximal effective concentration), were calculated by using nonlinear regression analysis and sigmoidal curve fitting GraphPad Prism (San Diego, CA, USA) program. The values are expressed as the mean ± S.E.M of at least 3 independent experiments, each performed in triplicate. Statistical analysis was carried out using SPSS software (SPSS Inc., Chicago, lL, USA) and the Student T-test was used to compare different assay conditions. A ρ value < 0.05 was considered statistically significant.

µ opioid receptor = µ opioid receptor (Rattus norvegicus, UniProt P33535); experiment: [35S]GTPγS functional assay, rat brain membranes, µ receptor; assay type: biochemical, Sprague-Dawley rat; set-up: Membrane fractions were prepared from Sprague-Dawley rat or guinea pig brains; from tissue; host or cells: Sprague-Dawley rat brain (without cerebella) membranes
Chain of µ opioid receptor (P33535 whole entry): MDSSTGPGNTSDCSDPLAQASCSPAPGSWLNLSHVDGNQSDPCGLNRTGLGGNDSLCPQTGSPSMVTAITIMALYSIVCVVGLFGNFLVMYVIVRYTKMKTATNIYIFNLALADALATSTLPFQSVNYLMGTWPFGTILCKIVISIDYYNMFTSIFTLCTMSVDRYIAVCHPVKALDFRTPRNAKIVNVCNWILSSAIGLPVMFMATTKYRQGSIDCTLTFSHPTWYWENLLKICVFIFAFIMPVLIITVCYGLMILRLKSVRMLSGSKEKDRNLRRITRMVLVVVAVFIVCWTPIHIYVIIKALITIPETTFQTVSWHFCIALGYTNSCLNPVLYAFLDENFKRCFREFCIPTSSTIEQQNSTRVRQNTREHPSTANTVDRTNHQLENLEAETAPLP
Procedure: as §1, §2

K receptor = molecular target: T2, K receptor (Cavia porcellus, UniProt P41144); assay type: biochemical, guinea pig
T2 construct: Membrane fractions were prepared from Sprague-Dawley rat or guinea pig brains; from tissue; host or cells: guinea pig brain (without cerebella) membranes
T2 sequence (P41144 whole entry): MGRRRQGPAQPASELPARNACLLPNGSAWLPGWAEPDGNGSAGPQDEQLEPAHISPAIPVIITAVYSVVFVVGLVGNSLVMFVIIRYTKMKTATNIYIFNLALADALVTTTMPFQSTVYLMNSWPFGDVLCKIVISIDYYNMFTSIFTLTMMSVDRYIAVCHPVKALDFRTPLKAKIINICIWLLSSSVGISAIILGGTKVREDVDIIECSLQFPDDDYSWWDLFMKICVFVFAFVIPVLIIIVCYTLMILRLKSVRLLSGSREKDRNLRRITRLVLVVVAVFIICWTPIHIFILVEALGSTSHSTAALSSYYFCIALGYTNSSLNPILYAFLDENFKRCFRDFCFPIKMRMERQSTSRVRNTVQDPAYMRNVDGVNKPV

C=CCN1CC[C@]23CC(=O)CC[C@H]2[C@H]1Cc1cccc(OC)c13 [Compound 4, 4-methoxy-N-allylmorphinan-6-one]
[35S]GTPγS binding on co-incubation with naltrindole versus antagonist alone (δ receptor; 10 µM each): did not produce any significant increase | effect on [35S]GTPγS binding stimulated by SNC 80 (δ receptor; compound 10 µM, SNC 80 10 µM): did not cause any significant changes | function at the µ opioid receptor (µ opioid receptor): antagonistic function | [35S]GTPγS binding on co-incubation with cyprodime versus antagonist alone (µ opioid receptor; 10 µM each, rat brain membranes): did not produce any significant increase | effect on [35S]GTPγS binding stimulated by DAMGO (µ opioid receptor; compound 10 µM, DAMGO 10 µM, rat brain membranes): significantly decreased | [35S]GTPγS binding in the presence of the compound alone (µ opioid receptor; rat brain membranes, compared with DAMGO): no increase | [35S]GTPγS binding in the presence of the compound alone (K receptor): no increase | [35S]GTPγS binding on co-incubation with Nor-BNI versus antagonist alone (K receptor): did not produce any significant increase | effect on [35S]GTPγS binding stimulated by U69,593 (K receptor): slight, but significant decrease
